Measurements reported in the supplement of paper PMC5908809.

Key:
[1] = test system: normal NK cells expanded with K562-aAPC; experiment: percent inhibition of viability; higher = more inhibition; conditions: 72 h, IL-2 2.5 ng/mL
Protocol: (§1)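 Drug sensitivity and resistance testing on K562-aAPC-expanded normal NK cells: 5 concentrations (10-fold steps over a 10,000-fold range), 72 h at 37 °C, viability by CellTiter-Glo normalised to DMSO and benzethonium chloride controls; DSS from the fitted curve.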

[2] = test system: DERL-7 (IL-2 2.5 ng/mL); experiment: as above; conditions: 72 h
[3] = test system: IMC-1 (IL-2 20 ng/mL); experiment: as above; conditions: 72 h
[4] = test system: KAI3 (IL-2 2.5 ng/mL); experiment: as above; conditions: 72 h
[5] = test system: KHYG-1 (IL-2 2.5 ng/mL); experiment: as above; conditions: 72 h
[6] = test system: NK-92 (IL-2 2.5 ng/mL); experiment: as above; conditions: 72 h
[7] = test system: NK-YS (IL-2 2.5 ng/mL); experiment: as above; conditions: 72 h
[8] = test system: NKL (IL-2 2.5 ng/mL); experiment: as above; conditions: 72 h
[9] = test system: SNK-6 (IL-2 2.5 ng/mL); experiment: as above; conditions: 72 h
[10] = test system: YT (IL-2 2.5 ng/mL); experiment: as above; conditions: 72 h
[11] = test system: normal primary NK cells, pool 1 (3 donors) (IL-2 2.5 ng/mL); experiment: as above; conditions: 72 h
[12] = test system: normal primary NK cells, pool 1 (3 donors), resting (IL-2 0 ng/mL); experiment: as above; conditions: 72 h
[13] = test system: normal primary NK cells, pool 2 (3 donors) (IL-2 2.5 ng/mL); experiment: as above; conditions: 72 h
[14] = test system: normal primary NK cells, pool 3 (3 donors) (IL-2 2.5 ng/mL); experiment: as above; conditions: 72 h
[15] = test system: normal NK cells expanded with K562-aAPC; experiment: drug sensitivity score (DSS) (DSS units); higher = more sensitive; extreme values may be limits of the assay; conditions: 72 h; IL-2 2.5 ng/mL
Protocol: as §1

[16] = test system: DERL-7 (IL-2 2.5 ng/mL); experiment: as above; conditions: 72 h
[17] = test system: IMC-1 (IL-2 20 ng/mL); experiment: as above; conditions: 72 h
[18] = test system: KAI3 (IL-2 2.5 ng/mL); experiment: as above; conditions: 72 h
[19] = test system: KHYG-1 (IL-2 2.5 ng/mL); experiment: as above; conditions: 72 h
[20] = test system: NK-92 (IL-2 2.5 ng/mL); experiment: as above; conditions: 72 h
[21] = test system: NK-YS (IL-2 2.5 ng/mL); experiment: as above; conditions: 72 h
[22] = test system: NKL (IL-2 2.5 ng/mL); experiment: as above; conditions: 72 h
[23] = test system: SNK-6 (IL-2 2.5 ng/mL); experiment: as above; conditions: 72 h
[24] = test system: YT (IL-2 2.5 ng/mL); experiment: as above; conditions: 72 h
[25] = test system: normal primary NK cells, pool 1 (3 donors) (IL-2 2.5 ng/mL); experiment: as above; conditions: 72 h
[26] = test system: normal primary NK cells, pool 1 (3 donors), resting (IL-2 0 ng/mL); experiment: as above; conditions: 72 h
[27] = test system: normal primary NK cells, pool 2 (3 donors) (IL-2 2.5 ng/mL); experiment: as above; conditions: 72 h
[28] = test system: normal primary NK cells, pool 3 (3 donors) (IL-2 2.5 ng/mL); experiment: as above; conditions: 72 h

COc1ccc(C2=N[C@@H](c3ccc(Cl)cc3)[C@@H](c3ccc(Cl)cc3)N2C(=O)N2CCNC(=O)C2)c(OC(C)C)c1 [Nutlin-3] (max concentration tested 10000 nM)
percent inhibition of viability [%]
Conditions	1 nM	10 nM	100 nM	1000 nM	10000 nM
[1]	-4.98	0.87	1.74	19.4	99.2
[2]	0.15	0.54	7.5	29	99.3
[3]	-5.54	-4.03	-1.5	-1.01	21.2
[4]	-3.27	-5.08	7.55	34.8	60.6
[5]	-6.71	-9.4	-3.85	-2.52	12.2
[6]	-20.5	0.59	-14.7	13	28.5
[7]	-2.06	-4.19	0.64	37.4	83.9
[8]	3.59	-3.19	6.18	9.61	42.5
[9]	-8.93	-12	-4.65	42.5	85.7
[10]	-1.48	-2.54	1.47	19.9	69.5
[11]	-5.38	6.43	9.32	29	96.8
[12]	-5.64	8.67	11.7	69	93.8
[13]	-11.5	9.9	0.22	13.9	90
[14]	-6.84	5.45	0.48	4.02	75.6

Conditions	drug sensitivity score
[15]	8.63
[16]	9.5
[17]	0.61
[18]	7.56
[19]	0.02
[20]	2.8
[21]	9.5
[22]	3.64
[23]	10.1
[24]	6.81
[25]	9.16
[26]	14.5
[27]	7.31
[28]	4.75

COc1cccc2cc(-c3nc([C@H]4CC[C@H](C(=O)O)CC4)n4ncnc(N)c34)[nH]c12 [OSI-027] (max concentration tested 10000 nM)
percent inhibition of viability [%]
Conditions	1 nM	10 nM	100 nM	1000 nM	10000 nM
[1]	-6.22	-5.68	3.76	21.5	48.2
[2]	7.51	-0.27	4.62	33.3	81.3
[3]	-0.57	-5.79	-6.31	-24.6	15.6
[4]	-2.08	0.41	9.85	34.9	65.5
[5]	-1.84	-0.78	4.77	18.4	68.1
[6]	2.75	14.2	11.7	37.3	67
[7]	-5.3	-6.22	3.24	12.3	67.8
[8]	-11.8	-3.21	15.2	49.5	66
[9]	4.93	11.4	9.18	31.7	55.4
[10]	2.96	3.52	7.55	26.5	62.3
[11]	-9.22	7.53	-13.9	16.4	24.5
[12]	-7.98	3.28	-0.52	18.1	13
[13]	-8.05	-2.56	3.22	27.2	24.8
[14]	-5.61	1.81	2.65	24.4	23.8

Conditions	drug sensitivity score
[15]	4.91
[16]	8.48
[17]	0.09
[18]	7.92
[19]	6.5
[20]	8.91
[21]	5.77
[22]	10.9
[23]	7.2
[24]	6.33
[25]	2.65
[26]	2.18
[27]	4.93
[28]	4.17

O=C(Nc1ccc(OC(F)(F)F)cc1)c1sccc1NCc1ccnc2ccccc12 [OSI-930] (max concentration tested 2500 nM)
percent inhibition of viability [%]
Conditions	0.25 nM	2.5 nM	25 nM	250 nM	2500 nM
[1]	0.01	-3.72	-1.42	0.82	7.54
[2]	-3.26	4.29	2.35	12.1	10.2
[3]	0.84	-1.87	4.98	6.89	18.2
[4]	3.63	-6.37	-2.54	-7.75	4.42
[5]	0.6	1.74	3.75	5.69	7.1
[6]	3.89	-3.38	-8.56	11.8	16.6
[7]	-1.68	-3.28	-0.75	3.05	10.1
[8]	-6.01	-14.6	-5.82	-10.2	7.79
[9]	2.35	8.65	27.3	16.9	25.4
[10]	-0.61	-3.29	0.94	1	10.3
[11]	-1.64	6.46	-0.65	1.58	5.43
[12]	-4.47	-4.58	-9.07	4.32	12.1
[13]	-8.8	-7.72	0	7.78	8.04
[14]	-8.79	-12.1	-5.29	4.46	8.54

Conditions	drug sensitivity score
[15]	0
[16]	0.66
[17]	0.67
[18]	0
[19]	0
[20]	1.27
[21]	0
[22]	0
[23]	8.62
[24]	0
[25]	0
[26]	0.24
[27]	0
[28]	0
